The values below come from patent US7972615B2, “Peptide compositions for coating metal medical devices with vancomycin” (Affinergy, Inc., priority 2008, dated 2011).

Data set [1] is classed as binding. The note with it: FIG. 1; 18 hour incubation in 10% BSA+10 mM guanidinium chloride. From the text: In this example, illustrated are unexpected beneficial properties of the composition of the invention, including but not limited to, one or more improved biophysical properties. Such one or more unexpected beneficial properties of a composition of the invention may comprise an increase in stability. An increase in stability may comprise any one or more of resistance to chemical denaturation, resistance to proteolytic degradation, improved retention to a substrate (e.g., resistance to being competed off a substrate to which it is bound, such as by proteins or other biomolecules found in body tissues). Thus, to ascertain a beneficial property of a composition of the invention, it is compared to the properties of a component of the composition-namely, a substrate-binding peptide by itself (e.g., without fatty acid covalently coupled thereto). An assay was developed that, from our direct comparisons (see, e.g., discussion of FIG. 2 below, and Example 7 herein), mimicked the effect of incubation of substrate-binding peptide with human plasma on stability of binding of a substrate-binding peptide to its substrate. The assay utilized incubations in the presence of 10% bovine serum album (BSA) with 10 mM guanidinium chloride. The high BSA concentration mimics the elevated albumin content of human plasma, and the guanidinium chloride is used to compete with any charged interactions involved in binding of the substrate-binding peptide to its substrate.
In this assay, two immunoassay plates were prepared for a “side-by-side” comparison of binding of a test sample (substrate-binding peptide or composition of the invention) to its substrate with or without the presence of 10% BSA with 10 mM guanidinium chloride. The wells of each 96-well polypropylene plate were incubated with 350 μl BSA 1% in PBS for 30 minutes at 20° C. with 500 rpm shaking. To each well was added one acetone-cleaned 3/32″ 316LVM stainless steel bead, followed by addition of dilutions in PBS of the test sample in a range of concentrations starting from 10 μM. Final volume in each well was 200 μl. The plates were incubated for 1 hour at 20° C. with 500 rpm shaking to allow for the binding to occur. The beads were washed 3 times with 250 μl PBS using a plate washer. […]
In the immunoassay for detecting binding without the presence of 10% BSA with 10 mM guanidinium chloride, added to each well was 200 μl of streptavidin AP (AP is alkaline phosphatase) at 1/200 in TBS+1% BSA. […] When color has developed, each well was read at OD405 nm in endpoint mode using a plate reader. […] When color has developed, the wells were read at OD405 nm in endpoint mode using a plate reader. […]

A short description of data set [2]: Critical micelle concentration (CMC) assay with methyl orange. The data set is classed as physicochemical. The settings on record: pH 7 PBS, A484. On the procedure:
Formation of a composition of the invention, and evidence of macromolecular network formation, may be monitored or quantified by any means known in the art. In this example, macromolecular formation was detected using a standard assay for determining critical micelle concentration (“CMC”). In this assay, a solution containing the composition of the invention (in a range of concentrations in pH 7 phosphate buffered saline (“PBS”)) was mixed with a solution of methyl orange (0.04 mM in PBS), and the absorbance of the mixture was measured at 484 nm (A484). CMC is the concentration at which a sharp decrease in absorbance at A484 is observed, a change in the optical properties of methyl orange when trapped in a hydrophobic phase, such as caused by self-association as a macromolecular network (Table 7, “CMC”). Also included in this assay were an assay control peptide having an amino acid sequence of SEQ ID NO:122 (Table 7, “Control”), and compound 119 (a PEGylated peptide, the peptide having an amino acid sequence of SEQ ID NO:122, as described in more detail in Example 6 herein).

The nature of data set [3]: Stent flow model (in vitro model for in vivo stability on a stent). The data set is classed as binding. The note with it: radiolabelled.
Protocol: In this example, an in vitro model for in vivo stability on a medical device comprising a stent was performed. The stent flow model included a “circulatory system” comprising a peristaltic pump and clear silicone tubing into which is placed a stent (8 mm, stainless steel) coated with a composition according to the invention. Coating of the stents was accomplished by incubating the stents with radiolabelled composition 132 (specific activity 2,400 cpm/pmole at 20 μM in PBS) for 1 hour at 20° C., followed by extensive washing with buffer. […] In another variation of the stent flow model, 10% BSA+10 mM guanidinium chloride was circulated through the circulatory system at a flow rate of 5 ml/min for 18 hours at 37° C. After circulation in the respective variations of the stent flow model, the coated stents were then counted for radioactivity. To serve as an assay “control”, some coated stents were not placed in the stent flow model, but rather counted for radioactive counts to provide a reference from which percent retention could be calculated for those coated stents included in the stent flow model.
Data set [4] can be described thus: Vancomycin loading onto titanium bead, HPLC of HCl eluate. The data set is classed as binding. The note with it: components mixed with vancomycin, 30 mins at 20° C., washed three times. On the procedure:
The experimental procedure used for the embodiments described above was as follows. […] All three components were mixed and then applied to the metal bead. […] All three components were mixed and then applied to the metal bead. […] The mixtures were applied to the metal beads and incubated for 30 mins at 20° C. with 700 rpm shaking. The beads were washed three times with 350ul PBS. Beads were analyzed as follows: 200 ul of 100 mM HCl was added to each bead and incubated for 30 mins at 20° C. with 1,000 rpm shaking. The eluate from each bead was analyzed by HPLC using Phenomenex Luna 3 um column, 50×4.60 mm. Output was compared to a standard curve for vancomycin to determine the amount of vancomycin retained onto the metal bead.

Square brackets hold non-standard residues; d marks the D form. Ends that are not written are not given here. miniPeg = miniPEG linker unit; Aun = NCCCCCCCCCCC(=O)O

With “119: Fmoc-NH-(PEG)27-CO2H covalently coupled to a peptide having the amino acid sequence of SEQ ID NO:122 (PEGylated peptide) (SSHRTNHKKNNPKKKNKTRGSSGK; not fully specified (N-terminus); also: Fmoc-NH-(PEG)27-CO2H covalently coupled, site not given here) [Compound 119, reference compound]”, in data set [1], the “retention of binding of substrate-binding peptide component to its substrate, compared to substrate-binding peptide alone (SEQ ID NO: 122)” value was “failed to promote retention”. Same read-out and setting: the result for “120: amino acid sequence YWAWAYAW (SEQ ID NO:129) covalently coupled to a peptide having the amino acid sequence of SEQ ID NO:122 (YWAWAYAWSSHRTNHKKNNPKKKNKTRGSSGK) [Compound 120, reference compound]” reads “failed to promote retention”.

For “AUD-AUD-AUD-AUD-AUD-AUD-SEQ ID NO: 122 ([Aun][Aun][Aun][Aun][Aun][Aun]SSHRTNHKKNNPKKKNKTRGSSGK) [Compound 130]”, the CMC in data set [2] came out at 0.041 µM. “AUD-AUD-AUD-AUD-SEQ ID NO: 122 ([Aun][Aun][Aun][Aun]SSHRTNHKKNNPKKKNKTRGSSGK) [Compound 122]”: the “retention of binding of substrate-binding peptide component to its substrate, compared to substrate-binding peptide alone (SEQ ID NO: 122)” value in data set [1] is given as “significantly improved retention”. Still for that read-out and setting: for “AUD-AUD-K-AUD-AUD-AUD-AUD-SEQ ID NO: 122 ([Aun][Aun]K[Aun][Aun][Aun][Aun]SSHRTNHKKNNPKKKNKTRGSSGK) [Compound 123]” the value was “significantly improved retention”.

As for “Ac-Y-AUD-AUD-AUD-AUD-AUD-AUD-SEQ ID NO: 122 (Ac-Y[Aun][Aun][Aun][Aun][Aun][Aun]SSHRTNHKKNNPKKKNKTRGSSGK) [Compound 132]”, the “composition remained bound to the coated stents” value in data set [3] (10% BSA+10 mM guanidinium chloride circulated at 5 ml/min for 18 hours at 37° C.) and in data set [3] (human plasma circulated at 5 ml/min for 7 days at 37° C.) was “over 90%” throughout. On to “MA-Ahx-SSCLIDIYGVCHN FDAY-miniPeg-miniPeg-HKKNNPKKKNKTRGSSK(Biotin) [SEQ ID NO: 164]”, for which the “Vancomycin Load” value in data set [4] turned out to be 278 pmol/cm2. The same measure, in the same setting: the result for “SSSCLIDMYGVCHNFDGAYDSSRG-miniPeg-miniPeg-SSHRTNHKKNNPKKKNKTRGSSGK (SSSCLIDMYGVCHNFDGAYDSSRG[miniPeg][miniPeg]SSHRTNHKKNNPKKKNKTRGSSGK; cysteine pairing not given here) [SEQ ID NO: 163]” reads 54 pmol/cm2.
